In paper PMC3198036 (Frontiers in Pharmacology, 2011):
Where “and” joins values, the source holds several entries; their conditions need not be identical. Equal values may be shown once. Where a name gives a salt, the structure may show the parent alone. Read-outs that look alike come from different tables or passages of the source.

Legend:
[1] = target: nicotinic acetylcholine receptors (nAChRs), [^3H]-epibatidine binding sites in rat cerebral cortex
[2] = target: nicotinic acetylcholine receptors (nAChRs), [^3H]-epibatidine binding sites in rat cerebral cortex; test: Homogenate binding assay with [^3H]-epibatidine, rat cerebral cortex homogenates
[3] = tested on: nAChRs ([^3H]-epibatidine binding sites) in rat cortex and cerebellum; details: in vivo
[4] = tested on: nicotinic acetylcholine receptors (nAChRs), [^3H]-epibatidine binding sites in rat cerebellum
[5] = target: nicotinic acetylcholine receptors (nAChRs), [^3H]-epibatidine binding sites in rat cerebellum; remark: listed apart in the source

| Structure (SMILES) | pKihigh [1] | pKilow [1] | pKihigh [2] | pKilow [2] | Competition in the [^3H]-epibatidine binding assay [1] | Competition in the [^3H]-epibatidine binding assay [2] | pKi (single site; one-site fit) [2] | further results |
| --- | --- | --- | --- | --- | --- | --- | --- | --- |
| O=c1cccc2n1C[C@@H]1CNC[C@H]2C1 [Cytisine, cytisine] | 8.7 ± 0.1 | 6.7 ± 0.1 | 9.4 ± 0.0 | 7.2 ± 0.2 | – | – | – | – |
| CO[C@H]1CC=C2CCN3CCC4=C(CC(=O)OC4)[C@]23C1 [Dihydro-β-erythroidine, dihydro-β-erythroidine] | 7.1 ± 0.1 | 5.7 ± 0.2 | 7.7 ± 0.2 | 6.3 ± 0.1 | – | – | – | – |
| C[N+](C)(C)CCCCCC[N+](C)(C)C [Hexamethonium, hexamethonium chloride] | – | – | – | – | competitive | competitive | 4.0 ± 0.1 | pKi (single site; cell spans pKihigh and pKilow columns) [1]: 3.4 ± 0.1 |
| CNC1(C)C2CCC(C2)C1(C)C (stereo not drawn) [Mecamylamine, mecamylamine hydrochloride] | – | – | – | – | failed to compete | failed to compete | – | pKi (single site; cell spans pKihigh and pKilow columns) ([1]; cortex segments, 400 pM [^3H]-epibatidine, 28 h, 4°C): NI (NI, no inhibition); pKi (single site; one-site fit) ([2]; cortex homogenates, 200 pM [^3H]-epibatidine, 5 h, 4°C): NI (NI, no inhibition) |
| CN1CCC[C@H]1c1cccnc1 [Nicotine, nicotine] | 7.8 ± 0.2 and 7.9 ± 0.1 | 6.3 ± 0.2 and 6.5 ± 0.1 | – | – | – | – | 8.4 ± 0.1 | Upregulation of nAChRs [3]: no upregulation; pKi (single site; cell spans pKihigh and pKilow columns) [4]: 7.1 ± 0.2; pKihigh [5]: 8.2 ± 0.1; pKilow [5]: 6.3 ± 0.1; pKi [2]: 8.1 ± 0.1 |
